A word on the IC50: it is the concentration needed to halve the response being measured.

Here are results for 49 molecules from patent US20150164899A1, “INHIBITION OF ADAPTOR ASSOCIATED KINASE 1 FOR THE TREATMENT OF PAIN” (priority 2012, published 2015).

Experiment [1] has as its target T1, AAK1 (full-length human protein) (Homo sapiens, UniProt Q2M2I8).
T1 construct: NP_055726.2
Briefly: P81 filter plate assay. The experiment is classed as biochemical. How it is done: Compounds were serially diluted into a Labcyte LDV plate (Labcyte, cat# LP-0200) using a Mutiprobe (PerkinElmer) and Biomek FX (Beckman Coulter) so that the highest compound concentration was at 96 μM. Compounds were then pinged (75 nL per well) into a Greiner 384-well reaction plate (Greiner, #781076) using an ECHO 550 Liquid Handler (Labcyte). A total of 12 μl reaction buffer (IMAP buffer containing Tween and DTT, from Molecular Devices) was then added to each well of columns 1 and 13 for the negative controls and 12 μl of 2×AAK1 (0.2 nM full-length human protein, NCBI accession no. NP_055726.2) was added to the remaining wells. Enzyme was then pre-incubated with compound for 10 minutes at RT. Reactions were initiated upon Minitrak (PerkinElmer) addition of 12 μl substrate mix containing 2× Mu2 (0.2 μM, full length human protein), 2× cold ATP (2 μM), and 1.3 μCi of hot ^33P-ATP. Reactions proceeded for one hour at RT. Meanwhile, Millipore 384-well P81 filter plates (Millipore, catalog # MZPHN0W10) were placed on a plate washer (Zoom Z W, from Titertek) and pre-wet with 50 μl 1% phosphoric acid. Kinase reactions were then stopped upon addition of 24 μl of 2% phosphoric acid to each well and the Minitrak was then used to transfer 40 μl from each well into the pre-wet Millipore 384-well P81 filter plates. Reaction mixtures were incubated for 10 minutes at RT in the P81 plates, followed by washing five times with 100 μl/well of 1% phosphoric acid using the Zoom filter washer. The bottom of each filter plate was sealed followed by addition of 20 μl Microscint 40 to each well, sealing the top of the plates with Flashplate cover, and then waiting one hour until reading on the TopCount (PerkinElmer).

For experiment [2], the target named is T2, AAK1 (full length human) in transfected HEK293F cells (Homo sapiens, UniProt Q2M2I8).
T2 construct: expressed in transfected cells; host or cells: HEK293F
Put plainly: HEK281 cell-based assay (phospho-mu2 Western blot). Conditions: HEK281 cell-based assay; pyrazolo[1,5-a]pyrimidine-based inhibitors; read-out: CBA IC50. The protocol: HEK293F cells were cultured in media containing DMEM (Gibco, cat. #11965), 10% FBS (SAFC Biosciences, cat. #12103C), 1×GPS (glutamine, penicillin and streptomycin). On day one, cells were plated on a 10 cm dish so that they are ˜80% confluent at time of transfection. Roughly 12 million cells were in a 10 cm dish at time of transfection. On day two, each dish was transfected with 48 ug DNA and 144 ul Lipofectamine 2000 (Invitrogen, cat.#11668-019). The DNA was comprised of a mixture (per 10 cm dish) containing 3 ug AAK1/HA/pIRES (full length human, NCBI accession no. NP_055726.2), 45 μg Flag/AP2MI/pcDNA (full length human), and 1.5 ml OPTI-MEM. The Lipofectamine 2000 is made up of a mixture (per 10 cm dish) containing 144 μl Lipofectamine 2000 and 1.5 ml OPTI-MEM. Each mixture was transferred to individual 15 ml tubes and incubated at RT for 5 minutes, and then the two mixes were combined and incubated at RT for 20 minutes. Growth media was then aspirated from each 10 cm plate and replaced with 10 ml of DMEM+10% FBS (no GPS). Finally, 3 ml DNA/Lipofectamine mix was added to each 10 cm dish and mix gently followed by incubate of plate overnight at 37° C. and 5% CO2.
On day three, compounds were diluted in 100% DMSO at 1000× final concentration, followed by 3-fold serial dilutions for a total of 5 concentrations tested. Four compounds were tested per 10 cm dish. One ul of each compound dilution was then pipetted into a deep-well, 96-well plate, followed by addition of 500 μl DMEM+0.5% FBS into each well for a 2× final concentration of each compound. Cells were resuspended in a 10 cm dish by simple pipetting (HEK293 cells come off the plate that easy at this point) and then transferred to a 50 ml conical tube and pelleted by centrifugation at 1000 rpm for 5 min. Cell pellets were then resuspended in 2.75 ml DMEM+0.5% FBS per 10 cm dish and 100 μl of cell suspension transferred into each well of 96-well TC plate. Finally, 100 μl of 2× compound diluted in DMEM+0.5% FBS was then added into wells containing cell suspension for a 1× final concentration. Plates were then incubated at 37° C. and 5% CO2 for 3 hours followed by transferring of cell suspensions from each well into 12-tube PCR strips. The PCR strips were spun in a tip rack at 1000 rpm for 5 minutes to pellet cells and media was then removed by pipetting without disturbing the cell pellet.
To prepare for Western Blot analysis, cell pellets were resuspend in 40 ul 1×LDS-PAGE sample buffer (Invitrogen, cat.# NP0008)+2× Halt phophatase and protease inhibitor cocktail (Thermo Scientific, cat.#1861284), followed by sonicating each with microtip sonicator set at 5 for 8-10 seconds. Five ul of 10× NuPage Sample Reducing Agent (with […]) was to each sample followed by heat denaturing at 70 C. for 10 min on PCR machine. A total of 10 μl per sample was loaded into each lane of a 4-20% Tris-Glycine Criterion 26-well gel (Biorad, cat.#345-0034) for the phospho-mu2 blot and 10 μl per lane in a 4-12% Bis-Tris (+MES buffer) NuPAGE 26-well gel (Invitrogen, cat.# WG1403BX10) for the mu2 blot. For controls, 2 ng of phospho-mu2 or 20 ng mu2/Flag proteins were loaded in the last well of each gel. After SDS-PAGE, samples on each gel were transferred to PVDF membrane using an iBlot and membranes were blocked for one hour in TBST+5% milk, followed by wash 3× for 5-10 min with TBST. Criterion gels were probed with rabbit anti-phospho-mu2 (1:5000; a rabbit polyclonal antibody produced by New England Peptide and affinity purified at Lexicon) in TBST+5% BSA, whereas, NuPAGE gels were probed with mouse anti-Flag (1:500; Sigma, cat.# F1804) in TBST+5% milk, and these primary antibodies were incubated overnight at 4° C. on a rocker.

Where [3] appears, read: pyrazolo[1,5-a]pyrimidine-based inhibitors.

T2 sequence (Q2M2I8 1-863 isoform Q2M2I8-2): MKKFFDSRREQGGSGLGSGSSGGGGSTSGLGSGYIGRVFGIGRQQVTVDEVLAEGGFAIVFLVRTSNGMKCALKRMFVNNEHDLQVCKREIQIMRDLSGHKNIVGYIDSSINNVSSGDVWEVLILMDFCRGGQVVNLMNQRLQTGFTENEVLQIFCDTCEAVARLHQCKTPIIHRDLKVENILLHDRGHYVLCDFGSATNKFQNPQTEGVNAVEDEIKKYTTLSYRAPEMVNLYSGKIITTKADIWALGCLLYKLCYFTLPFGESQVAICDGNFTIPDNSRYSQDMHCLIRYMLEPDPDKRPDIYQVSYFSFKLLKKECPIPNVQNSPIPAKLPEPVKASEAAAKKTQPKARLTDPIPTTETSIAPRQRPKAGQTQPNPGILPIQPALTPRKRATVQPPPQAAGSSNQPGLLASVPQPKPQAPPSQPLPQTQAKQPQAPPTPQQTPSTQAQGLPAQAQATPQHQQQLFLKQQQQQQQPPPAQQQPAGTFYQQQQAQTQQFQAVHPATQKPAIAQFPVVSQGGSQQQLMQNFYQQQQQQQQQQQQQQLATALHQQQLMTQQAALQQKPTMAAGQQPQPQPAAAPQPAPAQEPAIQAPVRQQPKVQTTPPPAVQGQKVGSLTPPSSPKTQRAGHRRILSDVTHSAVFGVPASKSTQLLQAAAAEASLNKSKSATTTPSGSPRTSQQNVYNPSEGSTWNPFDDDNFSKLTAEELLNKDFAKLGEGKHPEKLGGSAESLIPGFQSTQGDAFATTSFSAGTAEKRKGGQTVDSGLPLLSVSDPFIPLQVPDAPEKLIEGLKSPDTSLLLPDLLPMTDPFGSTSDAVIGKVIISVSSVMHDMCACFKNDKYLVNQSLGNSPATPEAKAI
T1 sequence (Q2M2I8 1-863 isoform Q2M2I8-2): as above

On to `COc1ccccc1-c1cnn2ccc(NC[C@@H]3CCCN3C(=O)CC(C)(C)C)nc12`, for which the IC50 in experiment [1] (setting [3]) and in experiment [2] was not above 10 nM throughout.
`CCOC(=O)c1cnn2ccc(N3CCN(C(=O)OC(C)C)CC3)nc12` showed an IC50 in experiment [1] (setting [3]) not above 100 nM.
For the molecule `CC(C)(C)NC(=O)N1CCC[C@H]1CNc1ccn2ncc(Br)c2n1`, the IC50 in experiment [1] (setting [3]) and in experiment [2] was not above 10 nM in each case.
`CC(C)OC(=O)N1CCN(c2ccn3ncc(-c4cncnc4)c3n2)CC1` displayed a half-inhibitory concentration (IC50) in experiment [1] (setting [3]) not above 100 nM.
Take `COc1ccccc1-c1cnn2ccc(NC[C@@H]3CCCN3C(=O)OC(C)C)nc12`: the IC50 in experiment [1] (setting [3]) and in experiment [2] was not above 10 nM in each case.
`COc1ncccc1-c1cnn2ccc(N3CCN(C(=O)OCCF)CC3)nc12`: the IC50 in experiment [1] (setting [3]) and in experiment [2] was not above 10 nM in each case.
`CC(C)OC(=O)N1CCN(c2ccn3ncc(-c4cccnc4O)c3n2)CC1`: the IC50 is not above 10 nM in experiment [1] (setting [3]) and not above 100 nM in experiment [2].
`CC(C)OC(=O)N1CCN(c2ccn3nccc3n2)CC1` had an IC50 in experiment [1] (setting [3]) not above 10 nM.
In turn, `CC(C)OC(=O)N1CCN(c2ccn3ncc(-c4cccnc4)c3n2)CC1` had an IC50 in experiment [1] (setting [3]) not above 10 nM.
For `COc1ncccc1-c1cnn2ccc(C3=CCN(C(=O)OC(C)C)CC3)nc12`, the IC50 in experiment [1] (setting [3]) and in experiment [2] was not above 10 nM throughout.
`COC(=O)N1CCC[C@H]1CNc1ccn2ncc(-c3ccccc3OC)c2n1`: the IC50 in experiment [1] (setting [3]) was not above 10 nM; in experiment [2] it was not above 100 nM.
As for `CCCC(=O)N(C)[C@H]1CCN(c2ccn3ncc(-c4ccccn4)c3n2)C1`, the IC50 in experiment [1] (setting [3]) is not above 1000 nM.
On to `COCc1ccccc1-c1cnn2ccc(NC[C@@H]3CCCN3C(=O)OC(C)(C)C)nc12`, for which the IC50 is not above 10 nM in experiment [1] (setting [3]) and not above 100 nM in experiment [2].
For the molecule `COc1ncccc1-c1cnn2ccc(N3CCN(C(=O)OC4CCCC4)CC3)nc12`, the IC50 in experiment [1] (setting [3]) and in experiment [2] was not above 10 nM throughout.
Turning to `COc1ncccc1-c1cnn2ccc(N3CCN(C(=O)OC(C)C)C(C)(C)C3)nc12`, the IC50 in experiment [1] (setting [3]) was not above 100 nM.
Same read-out and setting: then `CC(C)OC(=O)N1CCN(c2ccn3ncc(-c4cnccc4F)c3n2)CC1`, with not above 100 nM.
In the case of `CCOC(=O)N1CCN(c2ccn3ncc(-c4cccnc4OC)c3n2)CC1`, the IC50 was not above 10 nM in experiment [1] (setting [3]) and not above 100 nM in experiment [2].
With `CC(C)OC(=O)N1CCN(c2ccn3ncc(-c4cnccn4)c3n2)CC1`, the IC50 in experiment [1] (setting [3]) is not above 100 nM.
Turning to `COC(=O)N1CCN(c2ccn3ncc(-c4cccnc4OC)c3n2)CC1`, the IC50 in experiment [1] (setting [3]) and in experiment [2] was not above 100 nM each time.
For `FC(F)(F)CN1CCCC1CNc1ccn2ncc(Br)c2n1` (centres unmarked), the IC50 in experiment [1] (setting [3]) was not above 10 nM; in experiment [2], not above 100 nM.
For the molecule `CN(C(=O)CC(F)(F)F)[C@H]1CCN(c2ccn3ncc(Br)c3n2)C1`, in experiment [1] (setting [3]), the IC50 is not above 100 nM.
`CCOc1ccccc1-c1cnn2ccc(NC[C@@H]3CCC(=O)N3CCC(C)(C)C)nc12`: the results for the IC50 in experiment [1] (setting [3]) and in experiment [2] were not above 10 nM and not above 100 nM, respectively.
Consider `COc1ccccc1-c1cnn2ccc(NC[C@@H]3CCC(=O)N3CCC(C)(C)C)nc12`, for which the IC50 in experiment [1] (setting [3]) and in experiment [2] was not above 10 nM each time.
For the molecule `CC(C)(C)CCN1C(=O)CC[C@H]1CNc1ccn2ncc(Br)c2n1`, the IC50 in experiment [1] (setting [3]) is not above 10 nM; in experiment [2] it was not above 100 nM.
With `CCOC(=O)N1CCN(c2ccn3ncc(-c4cccnc4OCC)c3n2)CC1`, the IC50 in experiment [1] (setting [3]) and in experiment [2] was not above 10 nM in each case.
For `COc1ccc(-c2cnn3ccc(N4CCN(C(=O)OC(C)C)CC4)nc23)cn1`, the IC50 in experiment [1] (setting [3]) was not above 10 nM; in experiment [2] it was not above 1000 nM.
Regarding `COc1ncccc1-c1cnn2ccc(N3CCN(C(=O)N4CCCC4)CC3)nc12`, the figures for the IC50 in experiment [1] (setting [3]) and in experiment [2] were not above 10 nM and not above 100 nM, respectively.
On to `CC(C)(C)OC(=O)N1CCC[C@H]1CNc1ccn2ncc(-c3ccccc3O)c2n1`, for which the IC50 was not above 10 nM in experiment [1] (setting [3]) and not above 100 nM in experiment [2].
In the case of `CNC(=O)c1cnn2ccc(N3CCN(C(=O)OC(C)C)CC3)nc12`, the IC50 in experiment [1] (setting [3]) is not above 100 nM.
Still for that read-out and setting: then `COc1ncccc1-c1cnn2ccc(N3CC(N(C)C(=O)OC(C)C)C3)nc12`, with not above 100 nM; and `COc1ccnc(-c2cnn3ccc(N4CCN(C(=O)OC(C)C)CC4)nc23)c1`, with not above 10 nM.
Turning to `CCNC(=O)c1cnn2ccc(N3CCN(C(=O)OC(C)C)CC3)nc12`, the IC50 in experiment [1] (setting [3]) is not above 100 nM.
Consider `CN(C(=O)N1CCCC1)[C@H]1CCN(c2ccc3ncc(-c4ccccn4)n3n2)C1`, for which the IC50 in experiment [1] (Table 1 imidazo[1,2-b]pyridazines) is not above 100 nM.
For `CC(C)(C)OC(=O)N1CC=C(c2ccn3nccc3n2)CC1`, the IC50 in experiment [1] (setting [3]) is not above 100 nM.
In the case of `CN(C(=O)CC1CC1)[C@H]1CCN(c2ccn3ncc(-c4ccccn4)c3n2)C1`, the IC50 in experiment [1] (setting [3]) was not above 100 nM.
In turn, `COc1ncccc1-c1cnn2ccc(N3CCN(S(=O)(=O)CC(C)C)CC3)nc12` showed an IC50 in experiment [1] (setting [3]) not above 100 nM.
In experiment [1] (setting [3]), `CCOc1cccc(-c2cnn3ccc(N4CCN(C(=O)OC(C)C)CC4)nc23)c1` returned an IC50 not above 10 nM.
On to `CC(C)OC(=O)N1CCN(c2ccn3ncc(C(C)C)c3n2)CC1`, for which, in experiment [1] (setting [3]), the IC50 was not above 100 nM.
On the same count and under the same terms, then `COc1ncccc1-c1cnn2ccc(N3CC(N(C)C(=O)OC(C)(C)C)C3)nc12`, with not above 1000 nM; and `COc1ccccc1-c1cnn2ccc(N3CC[C@H](N(C)C(=O)CC(F)(F)F)C3)nc12`, with not above 100 nM.
In the case of `Cc1nn(C)c(C)c1-c1cnn2ccc(N3CCN(C(=O)OC(C)C)CC3)nc12`, the IC50 in experiment [1] (setting [3]) is not above 100 nM.
Still for that read-out and setting: then `COCCOC(=O)N1CCN(c2ccn3ncc(-c4ccccc4OC)c3n2)CC1`, with not above 10 nM; and `CC(C)(C)CCN1C(=O)CC[C@H]1CNc1ccn2ncc(-c3ccccc3)c2n1`, with not above 10 nM.
Same read-out and setting: then `CC(C)OC(=O)N(C)[C@H]1CCN(c2ccn3ncc(-c4ccncc4)c3n2)C1`, with not above 100 nM; and `CC(C)Cn1cc(-c2cnn3ccc(N4CCN(C(=O)OC(C)C)CC4)nc23)cn1`, with not above 100 nM; and `COc1ncccc1-c1cnn2ccc(N(CCCC(F)(F)F)C(C)=O)nc12`, with not above 1000 nM.
In experiment [1] (setting [3]), `CN(C(=O)N1CCCC1)[C@H]1CCN(c2ccn3ncc(Br)c3n2)C1` had an IC50 not above 100 nM.
In experiment [1] (setting [3]), `CC(C)NC(=O)c1cnn2ccc(N3CCN(C(=O)OC(C)C)CC3)nc12` had an IC50 not above 1000 nM.
`COc1ccccc1-c1cnn2ccc(N3CC[C@H](N(C)C(=O)OC(C)C)C3)nc12`: the IC50 in experiment [1] (setting [3]) was not above 100 nM.
